Measured values as given in ChEMBL document CHEMBL4651402, “Screening of ~5500 FDA-approved drugs and clinical candidates for anti-SARS-CoV-2 activity” (2021).

Test system: SARS-CoV-2
Assay: microbe, parasite or virus in culture
Conditions: Severe acute respiratory syndrome coronavirus 2, Vero C1008, 48 h

C=CC(=O)N1CCC(CNc2ncnc(N)c2-c2ccc(Oc3ccccc3)cc2)CC1 [EVOBRUTINIB]
IC50: > 20 µM
IC50 (read-out: pIC50 (converted)): > 20 µM

Cc1nccn1Cc1cc(-c2ccc(F)c(C(F)F)c2)cnn1 [EVT-101 FREE BASE]
IC50: > 20 µM
IC50 (read-out: pIC50 (converted)): > 20 µM

CCCCCCOc1ccccc1C(N)=O [EXALAMIDE]
IC50: > 20 µM
IC50 (read-out: pIC50 (converted)): > 20 µM

C=C1C[C@@H]2[C@H](CC[C@]3(C)C(=O)CC[C@@H]23)[C@@]2(C)C=CC(=O)C=C12 [EXEMESTANE]
IC50: > 20 µM
IC50 (read-out: pIC50 (converted)): > 20 µM

CC1=C(CC(=O)O)c2cc(F)ccc2/C1=C\c1ccc(S(C)(=O)=O)cc1 [EXISULIND]
IC50: > 20 µM
IC50 (read-out: pIC50 (converted)): > 20 µM

O=C1[C@H](CC[C@H](O)c2ccc(F)cc2)[C@@H](c2ccc(O)cc2)N1c1ccc(F)cc1 [EZETIMIBE]
IC50: > 20 µM
IC50 (read-out: pIC50 (converted)): > 20 µM

Cc1[nH]cnc1C[C@H]1CCc2c(C)c3ccccc3n2C1=O [FABESETRON]
IC50: > 20 µM
IC50 (read-out: pIC50 (converted)): > 20 µM

C=CCN1CCC[C@H]1CNC(=O)c1cc(CCCF)cc(OC)c1OC [FALLYPRIDE]
IC50: > 20 µM
IC50 (read-out: pIC50 (converted)): > 20 µM

CC(=O)OCC(CCn1cnc2cnc(N)nc21)COC(C)=O [FAMCICLOVIR]
IC50: > 20 µM
IC50 (read-out: pIC50 (converted)): > 20 µM

NC(N)=Nc1nc(CSCC/C(N)=N/S(N)(=O)=O)cs1 [FAMOTIDINE]
IC50: > 20 µM
IC50 (read-out: pIC50 (converted)): > 20 µM

CC(C)c1c(CN(C)C(C)Cc2ccccc2)n(C)n(-c2ccccc2)c1=O (stereo unspecified) [FAMPROFAZONE]
IC50: > 20 µM
IC50 (read-out: pIC50 (converted)): > 20 µM

O=S1(=O)c2cccc3cccc(c23)N1CCCN1CCN(c2ccc(F)cc2)CC1 [FANANSERIN]
IC50: > 20 µM
IC50 (read-out: pIC50 (converted)): > 20 µM

CN(C)CCCn1c(=O)c2ccccc2c2ccccc21 [FANTRIDONE]
IC50: > 20 µM
IC50 (read-out: pIC50 (converted)): > 20 µM

O=C(c1ccc2nonc2c1)N1CCCCC1 [FARAMPATOR]
IC50: > 20 µM
IC50 (read-out: pIC50 (converted)): > 20 µM

O=S(=O)(c1cccc2cnccc12)N1CCCNCC1 [FASUDIL]
IC50: > 20 µM
IC50 (read-out: pIC50 (converted)): > 20 µM

Cc1cnc(Nc2ccc(OCCN3CCCC3)cc2)nc1Nc1cccc(S(=O)(=O)NC(C)(C)C)c1 [FEDRATINIB]
IC50: > 20 µM
IC50 (read-out: pIC50 (converted)): > 20 µM

NC(=O)OCC(COC(N)=O)c1ccccc1 [FELBAMATE]
IC50: > 20 µM
IC50 (read-out: pIC50 (converted)): > 20 µM

O=C(O)Cc1ccc(-c2ccccc2)cc1 [FELBINAC]
IC50: > 20 µM
IC50 (read-out: pIC50 (converted)): > 20 µM

CCOC(=O)C1=C(C)NC(C)=C(C(=O)OC)C1c1cccc(Cl)c1Cl (stereo unspecified) [FELODIPINE]
IC50: > 20 µM
IC50 (read-out: pIC50 (converted)): > 20 µM

CCOC(=O)C(CC)(C(=O)NCCN(CC)CC)c1ccccc1 (stereo unspecified) [FENALAMIDE]
IC50: > 20 µM
IC50 (read-out: pIC50 (converted)): > 20 µM

O=C(O)c1ccccc1Nc1ccccc1 [FENAMIC ACID]
IC50: > 20 µM
IC50 (read-out: pIC50 (converted)): > 20 µM

COC(=O)Nc1nc2cc(Sc3ccccc3)ccc2[nH]1 [FENBENDAZOLE]
IC50: > 20 µM
IC50 (read-out: pIC50 (converted)): > 20 µM

O=C(O)CCC(=O)c1ccc(-c2ccccc2)cc1 [FENBUFEN]
IC50: > 20 µM
IC50 (read-out: pIC50 (converted)): > 20 µM

CCNC1C2CCC(C2)C1c1ccccc1 (stereo unspecified) [FENCAMFAMIN]
IC50: > 20 µM
IC50 (read-out: pIC50 (converted)): > 20 µM

O=C(O)Cc1csc(-c2ccc(Cl)cc2)n1 [FENCLOZIC ACID]
IC50: > 20 µM
IC50 (read-out: pIC50 (converted)): > 20 µM

CC(NCCC(c1ccccc1)c1ccccc1)c1ccccc1 (stereo unspecified) [FENDILINE]
IC50: > 20 µM
IC50 (read-out: pIC50 (converted)): > 20 µM

C[C@H]1CN(C2COC2)CCN1c1ccc(Nc2cc(-c3ccnc(N4CCn5c(cc6c5CC(C)(C)C6)C4=O)c3CO)cn(C)c2=O)nc1 [FENEBRUTINIB]
IC50: > 20 µM
IC50 (read-out: pIC50 (converted)): > 20 µM

CCNC(C)Cc1cccc(C(F)(F)F)c1 (stereo unspecified) [FENFLURAMINE]
IC50: > 20 µM
IC50 (read-out: pIC50 (converted)): > 20 µM

CCCC/N=C(/c1cc(Cl)ccc1O)c1ccccc1Cl [FENGABINE]
IC50: > 20 µM
IC50 (read-out: pIC50 (converted)): > 20 µM

CC1NC(=O)COC1c1ccccc1 (stereo unspecified) [FENMETRAMIDE]
IC50: > 20 µM
IC50 (read-out: pIC50 (converted)): > 20 µM

CC(C)(Oc1ccc(C(=O)c2ccc(Cl)cc2)cc1)C(=O)O [FENOFIBRIC ACID]
IC50: > 20 µM
IC50 (read-out: pIC50 (converted)): > 20 µM

Oc1ccc(C2CNCCc3c2cc(O)c(O)c3Cl)cc1 (stereo unspecified) [FENOLDOPAM]
IC50: > 20 µM
IC50 (read-out: pIC50 (converted)): > 20 µM

CC(C(=O)O)c1cccc(Oc2ccccc2)c1 (stereo unspecified) [FENOPROFEN]
IC50: > 20 µM
IC50 (read-out: pIC50 (converted)): > 20 µM

O=C(CN1CCN(Cc2ccc3c(c2)OCO3)CC1)N1c2ccccc2Sc2ccccc21 [FENOVERINE]
IC50: > 20 µM
IC50 (read-out: pIC50 (converted)): > 20 µM

CC(Cc1ccc(C(C)(C)C)cc1)CN1CCCCC1 (stereo unspecified) [FENPROPIDIN]
IC50: > 20 µM
IC50 (read-out: pIC50 (converted)): > 20 µM

NS(=O)(=O)c1cc2c(cc1Cl)NC(c1ccccc1)NC2=O (stereo unspecified) [FENQUIZONE]
IC50: > 20 µM
IC50 (read-out: pIC50 (converted)): > 20 µM

O=C(O)Cc1sc(-c2ccccc2)nc1-c1ccc(Cl)cc1 [FENTIAZAC]
IC50: > 20 µM
IC50 (read-out: pIC50 (converted)): > 20 µM

Oc1ccc(Cl)cc1Sc1cc(Cl)ccc1O [FENTICLOR]
IC50: > 20 µM
IC50 (read-out: pIC50 (converted)): > 20 µM

Clc1ccc(C(Cn2ccnc2)OCc2ccc(Sc3ccccc3)cc2)c(Cl)c1 (stereo unspecified) [FENTICONAZOLE]
IC50: > 20 µM
IC50 (read-out: pIC50 (converted)): > 20 µM

CC(C)=CCC1C(=O)N(c2ccccc2)N(c2ccccc2)C1=O [FEPRAZONE]
IC50: > 20 µM
IC50 (read-out: pIC50 (converted)): > 20 µM

COc1cc(/C=C/C(=O)O)ccc1O [FERULATE]
IC50: > 20 µM
IC50 (read-out: pIC50 (converted)): > 20 µM

COc1cc(CCc2cc(NC(=O)c3ccc(N4C[C@@H](C)N[C@@H](C)C4)cc3)n[nH]2)cc(OC)c1 [FEXAGRATINIB]
IC50: > 20 µM
IC50 (read-out: pIC50 (converted)): > 20 µM

CC(C)(C(=O)O)c1ccc(C(O)CCCN2CCC(C(O)(c3ccccc3)c3ccccc3)CC2)cc1 (stereo unspecified) [FEXOFENADINE]
IC50: > 20 µM
IC50 (read-out: pIC50 (converted)): > 20 µM

COCCNc1cc(NC(=O)N2CCCc3cc(CN4CCN(C)CC4=O)c(C=O)nc32)ncc1C#N [FGF401]
IC50: > 20 µM
IC50 (read-out: pIC50 (converted)): > 20 µM

Cc1nc2ccc(-n3ncc(C(=O)c4cc5ccccc5[nH]4)c3N)cc2[nH]1 [FGFR INHIBITOR DEBIO 1347]
IC50: > 20 µM
IC50 (read-out: pIC50 (converted)): > 20 µM

O=c1[nH]c(=O)n([C@@H]2O[C@H](CO)[C@@H](O)[C@@H]2F)cc1I [FIALURIDINE]
IC50: > 20 µM
IC50 (read-out: pIC50 (converted)): > 20 µM

CCOc1ccc(-c2ccc(Cn3c(CC(C)(C)C(=O)O)c(SC(C)(C)C)c4cc(OCc5ccc(C)cn5)ccc43)cc2)cn1 [FIBOFLAPON]
IC50: > 20 µM
IC50 (read-out: pIC50 (converted)): > 20 µM

CON(C)C(=O)N1N=C(c2cc(F)ccc2F)S[C@@]1(CCCN)c1ccccc1 [FILANESIB]
IC50: > 20 µM
IC50 (read-out: pIC50 (converted)): > 20 µM

O=C(Nc1nc2cccc(-c3ccc(CN4CCS(=O)(=O)CC4)cc3)n2n1)C1CC1 [FILGOTINIB]
IC50: > 20 µM
IC50 (read-out: pIC50 (converted)): > 20 µM

COc1cc(C(=O)OC2CC3CCC(C2)N3C)ccc1O (stereo unspecified) [FILLALBIN]
IC50: > 20 µM
IC50 (read-out: pIC50 (converted)): > 20 µM

COc1ccc(-c2nc(N3CCOCC3)c3sc(CN(C)c4ncc(C(=O)NO)cn4)cc3n2)cn1 [FIMEPINOSTAT]
IC50: > 20 µM
IC50 (read-out: pIC50 (converted)): > 20 µM

CCCCCCCCc1ccc(CCC(N)(CO)CO)cc1 [FINGOLIMOD]
IC50: > 20 µM
IC50 (read-out: pIC50 (converted)): > 20 µM

COc1ccc(C(=O)NC2(C(=O)O)Cc3ccccc3C2)cc1OCCc1cccc(C)c1 [FIPAXALPARANT]
IC50: > 20 µM
IC50 (read-out: pIC50 (converted)): > 20 µM

O=C(COc1ccc(Cl)cc1)N1CCN(Cc2ccc3c(c2)OCO3)CC1 [FIPEXIDE]
IC50: > 20 µM
IC50 (read-out: pIC50 (converted)): > 20 µM

N#Cc1nn(-c2c(Cl)cc(C(F)(F)F)cc2Cl)c(N)c1[S+]([O-])C(F)(F)F (stereo unspecified) [FIPRONIL]
IC50: > 20 µM
IC50 (read-out: pIC50 (converted)): > 20 µM

COc1ccccc1[C@H](Cn1c(=O)n(C(C)(C)C(=O)O)c(=O)c2c(C)c(-c3ncco3)sc21)OC1CCOCC1 [FIRSOCOSTAT]
IC50: > 20 µM
IC50 (read-out: pIC50 (converted)): > 20 µM

O=c1cc(-c2ccccc2)oc2ccccc12 [FLAVONE]
IC50: > 20 µM
IC50 (read-out: pIC50 (converted)): > 20 µM

O=c1c(O)c(-c2ccccc2)oc2ccccc12 [FLAVONOL]
IC50: > 20 µM
IC50 (read-out: pIC50 (converted)): > 20 µM

Cc1c(-c2ccccc2)oc2c(C(=O)OCCN3CCCCC3)cccc2c1=O [FLAVOXATE]
IC50: > 20 µM
IC50 (read-out: pIC50 (converted)): > 20 µM

CN1CCC(O)(c2ccc(F)cc2)C(C(=O)c2ccc(F)cc2)C1 (stereo unspecified) [FLAZALONE]
IC50: > 20 µM
IC50 (read-out: pIC50 (converted)): > 20 µM

O=C(NCC1CCCCN1)c1cc(OCC(F)(F)F)ccc1OCC(F)(F)F (stereo unspecified) [FLECAINIDE]
IC50: > 20 µM
IC50 (read-out: pIC50 (converted)): > 20 µM

CN1CCN(c2c(F)cc3c(=O)c(C(=O)O)cn(CCF)c3c2F)CC1 [FLEROXACIN]
IC50: > 20 µM
IC50 (read-out: pIC50 (converted)): > 20 µM

CC(C)(CNC(N)=O)NCC(O)COC(=O)c1ccccc1F (stereo unspecified) [FLESTOLOL]
IC50: > 20 µM
IC50 (read-out: pIC50 (converted)): > 20 µM
